From patent publication US5594009A, “Fused pyrrolocarbazoles” (priority 1995, dated 1997)

test system: choline acetyltransferase (ChAT) activity in dissociated rat embryonic spinal cord culture; assay: Spinal Cord ChAT Activity Assay; type: cell-based; conditions: ChAT measured after 48 hours

Compound | Spinal Cord ChAT Activity, % of Control, untreated cultures
O=C1NC(=O)c2c1c1c(c3[nH]c4ccccc4c23)Cc2ccc(Br)cc2-1 [Compound Ib-2] | 153 % of Control
O=C1NCc2c1c1c3ccccc3[nH]c1c1sc3ccccc3c21 [Compound I-42, 6H, 7H, 12H-Benzo[b]thieno[2,3-a]pyrrolo[3,4-c]carbazole-5(5H)one] | 177 % of Control
O=C1NC(=O)c2c1c1c(c3[nH]c4ccccc4c23)CCc2cc(F)ccc2-1 [Compound Ia-4, 10-Fluoro-12,13-dihydro-6H, 14H-naphthyl[3,4-a]pyrrolo[3,4-c]carbazole-5,7(5H, 7H)dione] | < 120 % of Control
O=C1NC(=O)c2c1c1c(c3[nH]c4ccccc4c23)CCc2cc(C=Cc3ccccn3)ccc2-1 [Compound Ia-6] | 139 % of Control
COc1ccc2[nH]c3c4c(c5c(c3c2c1)CNC5=O)-c1ccccc1C4 [Compound I-13, 3-Methoxy-5H, 6H, 12H, 13H-Indeno[2,3-a]pyrrolo[3,4-c]carbazole-7(7H)one] | 217 % of Control
O=C1NCc2c1c1c(c3[nH]c4ccc(C=Cc5ccncc5)cc4c23)Cc2ccccc2-1 [Compound I-33, 3-(2-(4-Pyridyl)ethenyl)-5H,6H,12H,13H-indeno[2,3-a]pyrrolo[3,4-c]carbazole-7(7H)-one] | 144 % of Control
O=C1NCc2c1c1c(c3[nH]c4ccc(C=CN5C(=O)c6ccccc6C5=O)cc4c23)Cc2ccccc2-1 [Compound I-39, 3-(2-(2-Phthalimido)ethenyl)-5H,6H,12H,13H-indeno[2,3-a]pyrrolo[3,4-c]carbazole-7(7H)-one] | 268 % of Control
O=c1[nH]c(=O)c2c1c1c3ccccc3[nH]c1c1c(=O)c3ccccc3c12 [Compound I-28, 12-Oxo-6H,13H-indeno[2,3-a]pyrrolo[3,4-c]carbazole-5,7(5H,7H)dione] | < 120 % of Control
C#Cc1ccc2[nH]c3c4c(c5c(c3c2c1)CNC5=O)-c1ccccc1C4 [Compound I-36, 3-Ethynyl-5H,6H,12H,13H-indeno[2,3-a]pyrrolo[3,4-c]carbazole-7(7H)one] | 167 % of Control
O=C1NCc2c3c(c4[nH]c5ccc(C=Cc6ccccn6)cc5c4c21)Cc1ccccc1-3 [Compound I-41, 3-(2-(2-Pyridylethenyl))-6H,7H,12H,13H-indeno[2,3-a]pyrrolo[3,4-c]carbazole-5(5H)-one] | 122 % of Control
O=C1NC(=O)c2c1c1c(c3[nH]c4ccccc4c23)CCc2cc(CCc3ccccn3)ccc2-1 [Compound Ia-7] | < 120 % of Control
O=C1NC(O)c2c1c1c3ccccc3ccc1c1[nH]c3ccccc3c21 (stereo not drawn) [Compound I-38, 5-Hydroxy-12,13-dihydro-6H, 14H-naphthyl[3,4-a]pyrrolo[3,4-c]carbazole-7(7H)one] | 208 % of Control
O=C1NC(=O)c2c1c1c(c3[nH]c4ccccc4c23)CCc2cc(Br)ccc2-1 [Compound Ia-5, 10-Bromo-12,13-dihydro-6H, 14H-naphthyl[3,4,-a]pyrrolo[3,4-c]carbazole-5,7(5H, 7H)dione] | 132 % of Control
2-Chloro-6H, 7H, 12H, 13H-indeno[2,3-a]pyrrolo[3,4-c]carbazole-5(5H)one and 2-chloro-5H, 6H, 12H, 13H-indeno[2,3-a]pyrrolo[3,4-c]carbazole-7(7H)one [Compound Ia-2] | 161 % of Control
O=C1NCc2c1c1c(c3[nH]c4ccc(-c5ccccc5)cc4c23)Cc2ccccc2-1 [Compound I-27, 3-Phenyl-5H,6H,12H,13H-indeno[2,3-a]pyrrolo[3,4-c]carbazole-7(7H)one] | 120 % of Control
CCCCCc1ccc2[nH]c3c4c(c5c(c3c2c1)C(=O)NC5=O)-c1ccccc1C4 [Compound I-37, 3-Pentyl-6H,12H,13H-indeno[2,3-a]pyrrolo[3,4-c]carbazole-5,7(5H,7H)dione] | < 120 % of Control
Cn1c2ccccc2c2c3c(c4c(c21)Cc1ccccc1-4)C(=O)NC3=O [Compound I-4, 13-Methyl-6H, 12H-indeno[2,3-a]pyrrolo[3,4-c]carbazole-5,7(5H, 7H)-dione] | 124 % of Control
O=C1NCc2c1c1c3ccccc3sc1c1[nH]c3ccccc3c21 [Compound I-43, 6H, 7H, 12H-Benzo[b]thieno[2,3-a]pyrrolo[3,4-c]carbazole-7(7H)one] | 138 % of Control
O=C1NCc2c1c1c(c3[nH]c4ccc(C=CI)cc4c23)Cc2ccccc2-1 [Compound I-44] | 127 % of Control
mixture of 13-Methyl-6H, 7H, 12H-indeno[2,3-a]pyrrolo[3,4-c]carbazole-5(5H)one and 13-methyl-5H, 6H, 12H-indeno[2,3-a]pyrrolo[3,4,-c]carbazole-7(7H)one [Compound I-5] | 137 % of Control
O=C1NCc2c1c1c(c3[nH]c4ccc(Br)cc4c23)CCc2ccccc2-1 [Compound I-19, 3-Bromo-12,13-Dihydro-5H, 6H, 14H-naphthyl[3,4-a]pyrrolo[3,4-c]carbazole-7(7H)one] | 203 % of Control
O=C1NCc2c1c1c(c3[nH]c4ccc(I)cc4c23)Cc2ccccc2-1 [Compound I-40, 3-Iodo-5H, 6H, 12H, 13H-indeno[2,3-a]pyrrolo[3,4-c]carbazole-7(7H)-one] | 150 % of Control
Cc1cccc2c1[nH]c1c3c(c4c(c12)C(=O)NC4=O)-c1ccccc1C3 [Compound Ib-1, 1-Methyl-12H, 13H-indeno[2,3-a]pyrrolo[3,4-c]carbazole-6H-5,7(5H, 7H)-dione] | 138 % of Control
O=C1NCc2c3c(c4[nH]c5ccc(Br)cc5c4c21)CCc1ccccc1-3 [Compound I-18, 3-Bromo-12,13-dihydro-6H, 7H, 14H-naphthyl[3,4-a]pyrrolo[3,4-c]carbazole-5(5H)one] | 133 % of Control
3-Fluoro6H, 7H, 12H, 13H-indeno[2,3-a]pyrrolo[3,4-c]carbazole-5(5H)one and 3-fluoro-5H, 6H, 12H, 13H-indeno[2,3-a]pyrrolo[3,4-c]carbazole-7((7H)one [Compound I-8] | 200 % of Control
O=C1NC(=O)c2c1c1c(c3[nH]c4ccc(Cl)cc4c23)Cc2ccccc2-1 [Compound I-10, 3-Chloro-6H , 12H, 13H-indeno[2,3-a]pyrrolo[3,4-c]carbazole-5,7(5H, 7H)-dione] | 189 % of Control
N#CC=Cc1ccc2[nH]c3c4c(c5c(c3c2c1)CNC5=O)-c1ccccc1C4 [Compound I-35, 3-(2-Cyanoethenyl)-5H,6H,12H,13H-indeno[2,3-a]pyrrolo[3,4-c]carbazole-7(7H)one] | 121 % of Control
CCOC(=O)C=Cc1ccc2[nH]c3c4c(c5c(c3c2c1)CNC5=O)-c1ccccc1C4 [Compound I-25, 3-(3-Ethyl propenoate)-5H,6H,12H,13H-indeno[2,3-a]pyrrolo[3,4-c]carbazole-7(7H)one] | 168 % of Control
O=C1NC(=O)c2c1c1c(c3[nH]c4ccccc4c23)Cc2cc(Br)ccc2-1 [Compound Ia-3, 10-bromo-6H, 12H, 13H-indeno[2,3-a]pyrrolo[3,4-c]carbazole-5,7(5H, 7H)dione] | 138 % of Control

test system: ChAT activity of basal forebrain cultures; assay: Basal Forebrain ChAT Activity Assay; type: cell-based, rat; conditions: 1000 nM
Method: Fused pyrrolocarbazoles were tested for the ability to increase ChAT activity of basal forebrain cultures.
Methods: The basal forebrain was dissected from rat embryos (day 17 or 18 embryos) and the cells were dissociated with a neutral protease (Dispase™, Collaborative Research). Neurons were plated at a density of 5×10^4 cells/well (1.5×10^5 cells/cm^2) in poly-1-ornithine and laminin coated plates. Cells were cultured in serum-free N2 medium containing 0.05% BSA at 37° C. in a humidified atmosphere, 5% CO2 /95% air. ChAT activity was assessed 5 days after plating by using the ChAT assay as described in Example III(A)(1).

Compound | ChAT Activity (% of Control)
C#Cc1ccc2[nH]c3c4c(c5c(c3c2c1)CNC5=O)-c1ccccc1C4 [Compound I-36, 3-Ethynyl-5H,6H,12H,13H-indeno[2,3-a]pyrrolo[3,4-c]carbazole-7(7H)one] | inactive

same assay, conditions: Rattus norvegicus, 120 h; 100 nM; read-out: ChAT Activity (% of Control)

Compound | activity at 0.1 µM
C#Cc1ccc2[nH]c3c4c(c5c(c3c2c1)CNC5=O)-c1ccccc1C4 [Compound I-36, 3-Ethynyl-5H,6H,12H,13H-indeno[2,3-a]pyrrolo[3,4-c]carbazole-7(7H)one] | 122%

same assay, conditions: Rattus norvegicus, 120 h; 250 nM; read-out: ChAT Activity (% of Control)

Compound | activity at 0.25 µM
C#Cc1ccc2[nH]c3c4c(c5c(c3c2c1)CNC5=O)-c1ccccc1C4 [Compound I-36, 3-Ethynyl-5H,6H,12H,13H-indeno[2,3-a]pyrrolo[3,4-c]carbazole-7(7H)one] | 131%

same assay, conditions: Rattus norvegicus, 120 h; 500 nM; read-out: ChAT Activity (% of Control)

Compound | activity at 0.5 µM
C#Cc1ccc2[nH]c3c4c(c5c(c3c2c1)CNC5=O)-c1ccccc1C4 [Compound I-36, 3-Ethynyl-5H,6H,12H,13H-indeno[2,3-a]pyrrolo[3,4-c]carbazole-7(7H)one] | 123%
